Source: patent publication US20100292185A1, “BETA-LACTAMASE INHIBITORS” (priority 2009, published 2010)
Where a name gives a salt, the structure may show the parent alone. Read-outs that look alike come from different tables or passages of the source.

Tests used:
SHV-5 β-lactamase = target: T1, SHV-5 β-lactamase (Klebsiella pneumoniae, UniProt P0A3M1); assay: β-lactamase enzyme inhibition assay (nitrocefin substrate), SHV-5; assay type: biochemical
T1 construct: expressed as native untagged proteins; made in house; host or cells: E. coli BL21(DE3)
T1 sequence (P0A3M1 22-286): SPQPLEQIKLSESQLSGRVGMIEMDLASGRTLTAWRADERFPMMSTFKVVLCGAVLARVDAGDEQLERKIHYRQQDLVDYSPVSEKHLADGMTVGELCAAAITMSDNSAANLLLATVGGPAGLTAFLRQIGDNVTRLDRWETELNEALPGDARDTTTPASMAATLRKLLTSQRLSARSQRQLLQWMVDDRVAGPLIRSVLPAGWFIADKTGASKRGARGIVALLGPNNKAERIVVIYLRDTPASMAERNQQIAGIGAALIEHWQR
Description: (§1) Isolation of β-lactamases. For SHV-5, p99 AmpC, KPC-2 and CTX-M15 β-lactamases, E. coli BL21(DE3) bacterial cells carrying expression plasmids (expressed as native untagged proteins) for the individual β-lactamases were grown in 1 L of Superbroth (Teknova Inc. Hollister, Calif.) supplemented with 100 μg/ml kanamycin and 1×5052 (0.5% glycerol, 0.05% glucose and 0.2% α-lactose) at 35° C. for 18-20 hours. Cells were harvested by centrifugation (4,000×g, 4° C., 20 min), and resuspended in 50 ml of 10 mM HEPES pH 7.5 (1/20 of the initial volume). The cells were lysed by sonication (5 pulses of 45 seconds) at 45 W on ice. The lysates were clarified by centrifugation at 10,000×g for 40 minutes at 4° C. Samples were diluted 5-fold in 50 mM sodium acetate pH 5.0, stored overnight at 4° C., after which they were centrifuged at 10,000×g for 30 minutes to clarify, and filtered through 0.45 μm filters. The samples were loaded onto a 5 ml Capto S sepharose cation exchange column (GE Healthcare) pre-equilibrated with 50 mM sodium acetate pH 5.0. The column was washed with 5 column volumes of 50 mM sodium acetate pH 5.0 to wash out unbound protein and a linear gradient of NaCl (0 to 500 mM) was used to elute the protein (over 16 CV) from the column. Fractions were assayed for β-lactamase activity using Centa (Calbiochem, Gibbstown, N.J.) as a reporter β-lactamase substrate for activity in the isolated fractions. Active fractions were pooled, concentrated and further purified by gel filtration chromatography on a Superdex 75 prep grade gel filtration column (GE Healthcare, Piscataway, N.J.) pre-equilibrated in 50 mM Hepes pH 7.5, 150 mM NaCl. Active fractions were pooled concentrated, quantitated by BCA protein determination (Thermo Scientific, Rockford, Ill.), and frozen at −80° C. in 20% glycerol until use.
(§2) β-lactamase Inhibition. To determine the level of inhibition of β-lactamase enzymes, compounds were diluted in PBS at pH 7.0 to yield concentrations between 100 and 0.005 μM in microtiter plates. An equal volume of diluted enzyme stock was added, and the plates were incubated at 37° C. for 10 min. Nitrocefin solution was then dispensed as substrate into each well at a final concentration of 100 μM, and the plates were immediately read with the kinetic program at 486 nm for 10 min on the SPECTRAMAX® Plus^384 (high-throughput microplate spectrophotometer; Molecular Devices Corp., Sunnyvale, Calif.). Maximum rates of metabolism were then compared to those in control wells (without inhibitors), and percentages of enzyme inhibition were calculated for each concentration of inhibitor. The concentration of inhibitor needed to reduce the initial rate of hydrolysis of substrate by 50% (IC50) was calculated as the residual activity of β-lactamase at 486 nm using the SoftMax Pro 5.0 software (Molecular Devices Corp.).
(§3) Using the methodology described above, examples of the current invention were evaluated for their ability to inhibit β-lactamase enzymes. The results of these assays are summarized in Table 2 for representative enzymes across different subtypes (note SHV-5 and CTXM-15 exemplify different subclasses of Ambler Class A Extended Spectrum Beta Lactamases, KPC-2 exemplifies Class A carbapenemases, P99 represents chromosomal Class C AmpC, VIM-2 exemplifies subclass B1 of metallo-β-lactamases, and OXA-23 represents chromosome-encoded Class D oxacillin-hydrolyzing β-lactamases), NT=not tested.

CTX-M15 β-lactamase = target: T2, CTX-M15 β-lactamase (Escherichia coli, UniProt Q9EXV5); assay: β-lactamase enzyme inhibition assay (nitrocefin substrate), CTXM-15; assay type: biochemical
T2 construct: expressed as native untagged proteins; made in house; host or cells: E. coli BL21(DE3)
T2 sequence (Q9EXV5 entry or part of it): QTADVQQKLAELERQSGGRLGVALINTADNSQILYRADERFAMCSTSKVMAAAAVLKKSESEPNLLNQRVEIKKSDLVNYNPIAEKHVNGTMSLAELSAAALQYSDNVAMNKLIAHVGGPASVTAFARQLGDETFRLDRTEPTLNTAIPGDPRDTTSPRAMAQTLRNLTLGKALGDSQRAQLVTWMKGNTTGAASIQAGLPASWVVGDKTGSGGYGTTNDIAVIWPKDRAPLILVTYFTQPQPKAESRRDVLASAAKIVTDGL
Description: as §1, §2, §3

p99 AmpC β-lactamase = target: T3, p99 AmpC β-lactamase (Enterobacter cloacae, UniProt P05364); assay: β-lactamase enzyme inhibition assay (nitrocefin substrate), P99 AmpC; assay type: biochemical
T3 construct: expressed as native untagged proteins; made in house; host or cells: E. coli BL21(DE3)
T3 sequence (P05364 21-381): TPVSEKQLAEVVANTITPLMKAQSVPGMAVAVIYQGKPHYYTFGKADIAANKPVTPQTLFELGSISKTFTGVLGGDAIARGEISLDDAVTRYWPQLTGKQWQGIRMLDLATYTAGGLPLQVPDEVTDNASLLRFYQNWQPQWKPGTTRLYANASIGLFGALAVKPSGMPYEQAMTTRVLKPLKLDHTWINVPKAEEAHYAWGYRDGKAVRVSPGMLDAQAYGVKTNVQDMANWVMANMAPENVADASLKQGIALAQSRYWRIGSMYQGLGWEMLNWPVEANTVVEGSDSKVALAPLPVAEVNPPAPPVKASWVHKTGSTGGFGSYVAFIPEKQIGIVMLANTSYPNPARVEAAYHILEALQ
Description: as §1, §2, §3

[1] = tested on: K. pneumoniae expressing the Class A Extended Spectrum Beta-Lactamase (ESBL) CTX-M-15; assay: In vitro antibacterial assay of β-lactamase inhibition (broth microdilution MIC), K. pneumoniae CTX-M-15; assay type: cell-based
Source text: (§4) To determine the ability of test compounds to potentiate the inhibition of the growth of bacterial strains producing beta-lactamase enzymes, classic cell based screening assays were employed. Five bacteria strains producing beta-lactamase enzymes were used: K. pneumoniae expressing the Class A Extended Spectrum Beta-Lactamase (ESBL) CTX-M-15, E. coli expressing the Class A ESBL SHV-5, E. cloacae expressing the Class C P99+, K. pneumoniae expressing the Class A carbapenemase KPC-2, and P. aeruginosa expressing the Class B metallo β-lactamase VIM-2. In order to evaluate the ability of test compounds to inhibit beta-lactamase activity, Applicants used a modification of the broth microdilution assay. The assay was conducted in Cation Adjusted Mueller Hinton Broth (CAMHB, BD # 212322, BD Diagnostic Systems, Sparks, Md.). Bacteria strains were grown for 3-5 hours in CAMBH broth. All five strains were grown in presence of 50 μg/mL ampicillin to ensure resistance is maintained. In the meantime, test compounds were diluted in DMSO to a 0.1 mg/mL stock. The compounds were added to a microtiter plate and were diluted in 2-fold serial dilutions in CAMHB in a final concentration range of 8 μg/mL to 0.015 μg/ml. […] Each of these compound plates are made in quadruplicate, one for each bacteria strain. In addition to the titration of test compounds the MICs of a panel of cephalosporins is also tested to ensure the strains are behaving consistently from test to test. Once the test compound and cephalosporin are added the plates can be inoculated. Inocula are conducted according to CLSI broth microdilution method. After inoculation the plates are incubated for 16-20 hours at 37° C. then the Minimal Inhibitory Concentration (MIC) of the test compound is determined visually.
(§5) Using the methodology described above, examples of the current invention were evaluated for their ability to inhibit the growth of β-lactamase producing bacteria in the presence of a β-lactam antibiotic.

KPC-2 β-lactamase = target: T4, KPC-2 β-lactamase (Klebsiella pneumoniae, UniProt Q9F663); assay: β-lactamase enzyme inhibition assay (nitrocefin substrate), KPC-2; assay type: biochemical
T4 construct: expressed as native untagged proteins; made in house; host or cells: E. coli BL21(DE3)
T4 sequence (Q9F663 25-293 limits assumed): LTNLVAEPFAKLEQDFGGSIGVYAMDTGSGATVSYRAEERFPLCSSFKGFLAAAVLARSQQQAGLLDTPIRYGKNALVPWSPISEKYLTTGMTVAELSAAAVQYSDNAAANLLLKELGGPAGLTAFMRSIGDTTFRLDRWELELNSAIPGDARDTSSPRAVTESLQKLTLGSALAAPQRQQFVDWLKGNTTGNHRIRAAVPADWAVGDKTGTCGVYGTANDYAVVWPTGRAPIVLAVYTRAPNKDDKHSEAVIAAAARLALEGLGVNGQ
Description: as §1, §2, §3

[2] = tested on: E. cloacae expressing the Class C P99+; assay: In vitro antibacterial assay of β-lactamase inhibition (broth microdilution MIC), E. cloacae P99+; assay type: cell-based
Source text: as §4, §5

[3] = target: T5, VIM-2 metallo β-lactamase (Pseudomonas aeruginosa, UniProt Q9K2N0); assay: β-lactamase enzyme inhibition assay (nitrocefin substrate), VIM-2; assay type: biochemical; details: nitrocefin 100 μM, 37° C., PBS pH 7.0; read-out: VIM-2 IC50
T5 construct: made in house
Description: as §1
For VIM-2 metallo (β-lactamase, the procedure was identical with the following exceptions: 1) the protein was not pH adjusted to pH 5 with 50 mM sodium acetate, 2) the chromatography step was changed to a 5 ml Q sepharose anion exchange column pre-equilibrated with 50 mM Hepes pH 7.5, and 3) elution of the protein was achieved by a linear gradient of NaCl (0-600 mM). Finally, the VIM-2 purification required a second run (3rd step) on the Q sepharose anion exchange column to achieve acceptable purity (>90%).
as §2, §3

OXA-23 β-lactamase = target: T6, OXA-23 β-lactamase (Acinetobacter baumannii, UniProt Q9L4P2); assay: β-lactamase enzyme inhibition assay (nitrocefin substrate), OXA-23 crude extract; assay type: biochemical; details: nitrocefin 100 μM, 37° C., PBS pH 7.0; read-out: OXA-23 IC50
T6 construct: crude β-lactamase extracts were prepared from 20 ml overnight cultures; endogenous in cells; host or cells: Acinetobacter baumannii cells containing OXA-23 (crude freeze-thaw extract)
T6 sequence (Q9L4P2 18-273): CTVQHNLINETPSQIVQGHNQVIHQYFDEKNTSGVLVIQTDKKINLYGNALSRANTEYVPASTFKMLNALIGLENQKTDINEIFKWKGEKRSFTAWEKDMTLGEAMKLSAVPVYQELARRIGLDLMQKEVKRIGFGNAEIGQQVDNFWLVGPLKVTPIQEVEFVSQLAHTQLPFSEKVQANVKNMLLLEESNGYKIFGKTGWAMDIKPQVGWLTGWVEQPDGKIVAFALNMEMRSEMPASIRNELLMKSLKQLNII
Description: For OXA-23 β-lactamase, crude β-lactamase extracts were prepared from 20 ml overnight cultures with shaking. Acenitobacter baumanni cells containing OXA-23 were further diluted 10-fold and grown to mid-log phase (OD at 600 nm, 0.5-0.8) in Mueller-Hinton II (MH-II) broth at 37° C. The cells were pelleted at 5000 g, washed and resuspended in 2 mL PBS pH 7.0. The β-lactamases were extracted by four cycles of freezing and thawing followed by centrifugation. β-lactamase activity in the extracts was measured with the chromogenic cephalosporin nitrocefin. The amount of protein in each β-lactamase preparation was determined by the bicinchoninic acid (BCA) assay.
as §2

[4] = tested on: K. pneumoniae expressing the Class A carbapenemase KPC-2; assay: microbe, parasite or virus in culture; assay type: cell-based
Source text: as §4, §5

[5] = tested on: E. coli expressing the Class A ESBL SHV-5; assay: In vitro antibacterial assay of β-lactamase inhibition (broth microdilution MIC), E. coli SHV-5; assay type: cell-based
Source text: as §4, §5

[6] = tested on: P. aeruginosa expressing the Class B metallo β-lactamase VIM-2; assay: In vitro antibacterial assay of β-lactamase inhibition (broth microdilution MIC), P. aeruginosa VIM-2; assay type: cell-based; details: in presence of Ceftazidime 16 μg/mL (Examples 1-56)
Source text: as §4, §5

[7] = in presence of Ceftazidime 8 μg/ml (Examples 1-56)
[8] = nitrocefin 100 μM, 37° C., PBS pH 7.0, read-out: P99 AmpC IC50
[9] = in presence of Piperacillin 16 μg/ml (Examples 57-65)

Structure (SMILES)	IC50 (SHV-5 β-lactamase) [nM]	IC50 (CTX-M15 β-lactamase) [nM]	IC50 (p99 AmpC β-lactamase) [nM]	MIC of example compound, K. pneumoniae CTX-M-15 [1, 7] [µg/mL]	IC50 (KPC-2 β-lactamase) [nM]	MIC of example compound, E. cloacae P99+ [2, 7] [µg/mL]	IC50 [3] [nM]	IC50 (OXA-23 β-lactamase) [nM]	MIC of example compound, K. pneumoniae KPC-2 [4, 7] [µg/mL]	MIC of example compound, E. coli SHV-5 [5, 7] [µg/mL]	IC50 (p99 AmpC β-lactamase; [8]) [nM]	MIC of example compound, P. aeruginosa VIM-2 [6] [µg/mL]	MIC of example compound, K. pneumoniae CTX-M-15 [1, 9] [µg/mL]	MIC of example compound, E. cloacae P99+ [2, 9] [µg/mL]	MIC of example compound, K. pneumoniae KPC-2 [4, 9] [µg/mL]	MIC of example compound, E. coli SHV-5 [5, 9] [µg/mL]
O=C(N[C@@H](Cc1cccc(C(=O)O)c1O)B(O)O)c1ccc(CN2CCNCC2)cc1 [Example 5, 2(R)-3-[2-(4-(1-piperazinylmethyl)benzoylamino)-2-borono-ethyl]-2-hydroxy-benzoic acid Hydrochloride]	> 1000	6	1	1	1	2	510	> 1000	0.03	4	–	–	–	–	–	–
CCNCc1ccc(C(=O)N[C@@H](Cc2cccc(C(=O)O)c2O)B(O)O)cc1.Cl [Example 6, 2(R)-3-[2-(4-(N-ethylaminomethyl)benzoylamino)-2-borono-ethyl]-2-hydroxy-benzoic acid Hydrochloride]	> 1000	4	–	1	4	0.25	57	> 1000	0.03	4	1	–	–	–	–	–
Cl.Nc1ccc(C(=O)N[C@@H](Cc2cccc(C(=O)O)c2O)B(O)O)cn1 [Example 7, (2R)-3-{2-[(2-Amino-pyridine-5-carbonyl)-amino]-2-borono-ethyl}-2-hydroxy-benzoic acid formate salt]	320	1	–	0.12	4	0.12	820	508	0.03	1	1	–	–	–	–	–
O=C(Cc1ccc(C[n+]2ccccc2)cc1)N[C@@H](Cc1cccc(C(=O)O)c1O)B(O)O [Example 42, formate]	2	4	4	–	10	–	> 1000	153	–	–	–	–	–	–	–	–
Nc1ccc(CC(=O)N[C@@H](Cc2cccc(C(=O)O)c2O)B(O)O)cn1 [Example 46, (1R)-1-(6-amino-pyridin-3-yl-acetylamino)-2-(2-hydroxy-3-carboxyphenyl)ethyl-1-boronic acid formate]	0.7	5	–	0.03	3	0.06	–	209	0.007	0.06	4	>8	–	–	–	–
NCc1ccc(/C(=N/O)C(=O)N[C@@H](Cc2cccc(C(=O)O)c2O)B(O)O)cc1 [Example 53, 3-{2(R)-[2-(4-aminomethyl-phenyl)-2-hydroxyimino-acetylamino]-2-borono-ethyl}-2-hydroxy-benzoic acid hydrochloride]	29	12	–	–	39	–	312	350	–	–	–	–	–	–	–	–
O=C(Cc1ccc(CNc2ccccn2)cc1)N[C@@H](Cc1cccc(C(=O)O)c1O)B(O)O [Example 57, (1R)-1-{2-[4-(pyridin-2-ylaminomethyl)-phenyl]-acetylamino}-1-[(3-carboxy-2hydroxy)benzyl]-methylboronic acid formate]	2	4	–	–	13	–	–	156	–	–	3	–	>8	4	4	1
O=C(O)CNCc1ccc(CC(=O)N[C@@H](Cc2cccc(C(=O)O)c2O)B(O)O)cc1 [Example 58, (1R)-1-(2-{4-[(1-Carboxymethyl-amino)-methyl]-phenyl}-acetylamino)1-[(3-carboxy-2-hydroxy)benzyl]-methylboronic acid formate]	0.5	4	–	–	13	–	–	182	–	–	6	–	>8	2	0.5	0.5
